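96-well plates; 48 h exposure; 5 concentrations. Endpoints by linear interpolation between flanking doses. Not reached: highest tested concentration assigned. At the GI50, growth is halved. TGI marks complete inhibition of growth.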
Experiments:
Experiment in all cases: growth of human tumour cells (NCI), 48 h
[1] = tested on: HCT-116 colon
[2] = tested on: HCT-15 colon
[3] = tested on: IGROV1 ovarian
[4] = tested on: SK-OV-3 ovarian
[5] = tested on: SN12C renal
[6] = tested on: SNB-19 CNS
[7] = tested on: SW-620 colon
[8] = tested on: TK-10 renal
[9] = tested on: UACC-62 melanoma
[10] = tested on: UO-31 renal

Row | Structure (SMILES) | GI50 [1] [µM] | TGI [1] [µM] | GI50 [2] [µM] | TGI [2] [µM] | GI50 [3] [µM] | TGI [3] [µM] | GI50 [4] [µM] | TGI [4] [µM] | GI50 [5] [µM] | TGI [5] [µM] | GI50 [6] [µM] | TGI [6] [µM] | GI50 [7] [µM] | TGI [7] [µM] | GI50 [8] [µM] | TGI [8] [µM] | GI50 [9] [µM] | TGI [9] [µM] | GI50 [10] [µM] | TGI [10] [µM]
1 | NS(=O)(=O)CC1CC[CH-]CC1.[Cl-].[Cl-].[Cl-].[Cl-].[Cl-].[Sb+5].c1ccncc1 | > 100 | > 100 | > 100 | > 100 | > 100 | > 100 | > 100 | > 100 | > 100 | > 100 | > 100 | > 100 | > 100 | > 100 | > 100 | > 100 | > 100 | > 100 | > 100 | > 100
2 | N#Cc1c(N)nc(N2CCOCC2)c(C#N)c1-c1ccccn1 | > 100 | > 100 | > 100 | > 100 | > 52.3 | > 100 | > 85.9 | > 100 | > 100 | > 100 | > 100 | > 100 | > 100 | > 100 | > 100 | > 100 | 0.0342 | 0.482 | > 100 | > 100
3 | Oc1ccc(C2c3ccccc3Oc3ccccc32)c2cccnc12 | 0.852 | > 100 | 0.468 | > 100 | 1.62 | > 100 | 1.75 | > 100 | 1.65 | > 100 | 1.85 | > 100 | 1.17 | > 100 | 1.09 | > 100 | 1.88 | 8.07 | 1.21 | 19.7
4 | CN1CCN(c2ccc(NC(=O)c3cncnc3Nc3ccc(OCc4ccccn4)c(Cl)c3)cc2)CC1 | 0.788 | 1.91 | 0.961 | 3.19 | 3.13 | 9.18 | 4.79 | 11.2 | 3.93 | 8.72 | 5.11 | 11.8 | 1.14 | 4.63 | 6.78 | 15.3 | 0.695 | 1.42 | 3.89 | 9.97
5 | CCCCCCCCCC(=O)OCC1OC(n2cc(F)c(=O)[nH]c2=O)C(NC(=O)OCc2ccccc2)C(OC(=O)CCCCCCCCC)C1O (stereo not given) | – | 28.1 | – | > 100 | – | > 100 | – | > 100 | – | 29.6 | – | > 100 | – | > 100 | – | > 100 | – | > 100 | – | > 100
6 | Cc1cccc(C(C)(C)C)c1NC(=O)CCc1nc(=S)[nH][nH]1 | – | > 100 | – | > 100 | – | > 100 | – | > 100 | – | > 100 | – | > 100 | – | > 100 | – | > 100 | – | > 100 | – | > 100
7 | Cc1cc(-c2ccccn2)cc(C)c1/C=C/c1cncc(-c2nn[nH]n2)c1 | > 25 | > 25 | > 25 | > 25 | > 25 | > 25 | > 25 | > 25 | > 25 | > 25 | > 25 | > 25 | > 25 | > 25 | > 25 | > 25 | > 25 | > 25 | > 25 | > 25
8 | C=C1C(=O)O[C@H]2[C@H]1CC/C(COC(=O)C(C)c1ccc(CC(C)C)cc1)=C\CC[C@@]1(C)O[C@@H]21 (stereo not given in full) | 0.187 | 0.376 | 0.871 | 2.37 | 1.07 | 2.33 | 9.7 | 21.4 | 1.34 | 2.72 | 1.49 | 2.87 | 0.534 | 1.95 | 1.74 | 3.19 | 1.48 | 2.85 | 1.28 | 2.54
9 | O=NNc1ccc(Sc2ccc(NN=O)cn2)nc1 | – | > 100 | – | > 100 | – | > 100 | – | > 100 | – | > 100 | – | > 100 | – | > 100 | – | > 100 | – | > 100 | – | > 100
10 | CC1=C(C(=O)Nc2cc(Cl)c3[nH]ncc3c2)C(c2ccc(C(F)(F)F)cc2)CC(=O)N1 (stereo not given) | > 22.4 | > 25 | > 25 | > 25 | > 25 | > 25 | > 25 | > 25 | > 25 | > 25 | > 25 | > 25 | > 25 | > 25 | > 17.6 | > 25 | 19 | > 25 | 2 | > 25
11 | C=C(CO)[C@@H]1CC[C@]2(COC3CCCCO3)CC[C@]3(C)[C@H](CC[C@@H]4[C@@]5(C)C=C(C=O)C(=O)C(C)(C)[C@@H]5CC[C@]43C)[C@@H]12 (stereo not given in full) | 0.303 | 1.08 | 0.247 | 0.718 | 0.231 | 0.515 | 1.3 | 2.68 | 0.228 | 0.671 | 0.414 | 1.44 | 0.267 | 0.832 | 0.257 | 0.688 | 0.177 | 0.386 | 0.187 | 0.433
12 | CCOC(=O)c1cnc2sc3ccc4ccccc4c3n2c1=O | – | > 100 | – | > 100 | – | > 100 | – | > 100 | – | > 100 | – | > 100 | – | > 100 | – | > 100 | – | > 100 | – | 94.6
13 | CC(=O)c1c(CO[N+](=O)[O-])n([O-])c2ccccc2[n+]1=O | – | > 100 | – | > 100 | – | > 100 | – | > 100 | – | > 100 | – | > 100 | – | > 100 | – | > 100 | – | > 100 | – | > 100
14 | O=C(N/N=C/c1ccc(O)cc1O)c1cccc(Nc2ccnc(C(F)(F)F)c2)c1 | 0.535 | 20.5 | 2.2 | 51.7 | 1.28 | 27.7 | 1.22 | 18.3 | 2.01 | 26.1 | 1.01 | > 72.6 | 4.07 | 21.4 | 2.98 | 37.3 | 0.33 | 7.37 | 1.44 | 33.6

Source: PubChem BioAssay (NCI)
